# Reference: patent US9616107B2, “Therapy for kidney disease and/or heart failure” (priority 2011, dated 2017)
# Like-named read-outs stand apart in the source and are kept apart here. Ends that are not written are not given here.
# Assay: Toxicology study of VD in rats: 5-day continuous subcutaneous infusion by Alzet minipumps, plasma VD by radioimmunoassay, clinical observations
# Assay type: in vivo
# Conditions: for maximum tolerated dose for prolonged subcutaneous administration: expected; for Cmin: SC infusion 5 days
# Description: VD was administered to a rat model via a subcutaneous delivery route to assess the toxicity of VD and to determine if a lethal dosing amount of the VD can be reached by subcutaneous administration. As noted above, a maximum tolerated or lethal dosing amount was not observed for canines.
# VD-acetate (Bachem lot 2502022) was prepared in the Tris/Glycerin/m-cresol buffer at a concentration of 3 mg/mL or 15 mg/mL. The VD solution was administered continuously by subcutaneous infusion using Alzet® (Durect Corp.) osmotic minipumps (model 2002) over a period of 5 days to 3 study groups, where each study group (Groups 1-3) contained 3 male and 3 female Sprague Dawley rats.
# The continuous subcutaneous delivery dose for Group 1 was calibrated to yield an administration of approximately 100 ng/(kg·min) of VD, which is in the range of a dosing regimen useful for clinical use in humans. […] However, an estimated body weight of 250 g was used for all animals (males and females) for reporting pharmacokinetic and toxicological calculations; therefore, the estimated daily dose is reported as 0.144 mg/kg·day (or 100 ng/(kg·min)) for all animals in Group 1, and the total dose delivered to each animal over the 5-day period was 0.180 mg.
# The continuous subcutaneous delivery dose for Group 2 was calibrated to yield an administration of approximately 1000 ng/(kg·min) of VD, which is 10-fold higher than for Group 1. Each rat in Group 2 each had two Alzet pumps implanted to have a combined infusion rate was 1.0 μL/hr of the 15 mg/mL VD solution. The resulting actual mean weight-based doses were 1.026 and 1.629 mg/(kg·day) for males and females, respectively. For the pharmacokinetic calculations, an estimated body weight of 280 g was used for all animals (males and females); therefore, the estimated daily dose was reported as 1.29 mg/(kg·day) (or ˜896 ng/(kg·min)) for all animals in Group 2, and the total dose delivered to each animal over the 5 day period was 1.8 mg.
# The continuous subcutaneous delivery dose for Group 3 was calibrated to yield an administration of approximately 2000 ng/(kg·min). Each rat each had four Alzet pumps implanted for a combined infusion rate was 2.0 μL/hr of the 15 mg/mL VD solution. The resulting actual mean weight-based doses were 1.870 and 3.303 mg/(kg·day) for males and females, respectively. For pharmacokinetic calculations, an estimated body weight of 300 g was used for all animals (males and females); therefore the estimated daily dose was reported as 2.4 mg/(kg·day) (or (or ˜1667 ng/(kg·min)) for all animals in Group 3, and the total dose delivered to each animal for the 5 day period was 3.6 mg. The dosing for Groups 1-3 is summarized in Table 5.
# All animals in Groups 1-3 were observed twice daily for mortality and moribund appearance during the 5-day dosing period and during an at least 16-day pretest period. Clinical examinations were performed daily for all animals following surgery to implant the Alzet pumps. Detailed physical examinations were conducted on all animals approximately weekly during a pretest period of at least 16 days, prior to beginning dosing (Day 0), and on Day 5 prior to euthanasia. Individual body weights were recorded at least weekly during the pretest period, on Day 0 prior to dosing, and on Day 5 prior to euthanasia. Individual food consumption was recorded approximately weekly during the pretest period, on Day 0 prior to dosing, and on Day 5 prior to euthanasia. Blood samples for determination of plasma drug concentration were collected from all animals at approximately 4, 8, and 24 hours after pump implantation on Day 0 and immediately prior to euthanasia on Day 5 (120 hours after the start of dosing). Blood was collected via the retro-orbital sinus from animals anesthetized with isoflurane into chilled tubes containing K3-EDTA. Following the final blood collection, the animals were euthanized and discarded. […]
# [1] = female, Sprague Dawley, rat, in vivo, sc, 0.18 mg
# [2] = female, Sprague Dawley, rat, in vivo, sc, 1.8 mg
# [3] = female, Sprague Dawley, rat, in vivo, sc, 3.6 mg
sequence,measurement,setting,value
"EVVPPQVLSEPNEEAGAALSPLPEVPPWTGEVSPAQR [VD, Vessel Dilator]",level at 8 h,"Sprague Dawley, rat, in vivo, sc, 0.18 mg total dose, male rats N=3, 0.180 mg, 8 hours post-dosing, read-out: Mean concentration of vessel dilator in plasma",11.9 ng/mL
same,level at 4 h,"Sprague Dawley, rat, in vivo, sc, 0.18 mg, male rats N=3, 0.180 mg, 4 hours post-dosing (from start of infusion), read-out: Mean concentration of vessel dilator in plasma",17.1 ng/mL
same,level at 24 h,"Sprague Dawley, rat, in vivo, sc, 0.18 mg, male rats N=3, 0.180 mg, 24 hours post-dosing, read-out: Mean concentration of vessel dilator in plasma",13.3 ng/mL
same,level at 120 h,"Sprague Dawley, rat, in vivo, sc, 0.18 mg, male rats N=3, 0.180 mg, 120 hours post-dosing, all samples, read-out: Mean concentration of vessel dilator in plasma",78.6 ng/mL
same,level at 8 h,"Sprague Dawley, rat, in vivo, sc, 1.8 mg total dose, male rats N=3, 1.80 mg, 8 hours post-dosing, read-out: Mean concentration of vessel dilator in plasma",204 ng/mL
same,level at 4 h,"Sprague Dawley, rat, in vivo, sc, 1.8 mg, male rats N=3, 1.80 mg, 4 hours post-dosing, read-out: Mean concentration of vessel dilator in plasma",62.3 ng/mL
same,level at 24 h,"Sprague Dawley, rat, in vivo, sc, 1.8 mg, male rats N=3, 1.80 mg, 24 hours post-dosing, read-out: Mean concentration of vessel dilator in plasma",167 ng/mL
same,level at 120 h,"Sprague Dawley, rat, in vivo, sc, 1.8 mg, male rats N=3, 1.80 mg, 120 hours post-dosing, read-out: Mean concentration of vessel dilator in plasma",214 ng/mL
same,level at 4 h,"Sprague Dawley, rat, in vivo, sc, 3.6 mg, male rats N=3, 3.60 mg, 4 hours post-dosing, read-out: Mean concentration of vessel dilator in plasma",370 ng/mL
same,level at 8 h,"Sprague Dawley, rat, in vivo, sc, 3.6 mg, male rats N=3, 3.60 mg, 8 hours post-dosing, read-out: Mean concentration of vessel dilator in plasma",255 ng/mL
same,level at 24 h,"Sprague Dawley, rat, in vivo, sc, 3.6 mg, male rats N=3, 3.60 mg, 24 hours post-dosing, read-out: Mean concentration of vessel dilator in plasma",168 ng/mL
same,level at 120 h,"Sprague Dawley, rat, in vivo, sc, 3.6 mg, male rats N=3, 3.60 mg, 120 hours post-dosing, read-out: Mean concentration of vessel dilator in plasma",261 ng/mL
same,maximum tolerated dose for prolonged subcutaneous administration,female rats,> 2300 ng/kg·min
same,level at 4 h,[1],27.5 ng/mL
same,level at 8 h,[1],31.6 ng/mL
same,level at 24 h,[1],33.2 ng/mL
same,level at 120 h,[1],27.1 ng/mL
same,level at 4 h,[2],135 ng/mL
same,level at 8 h,[2],275 ng/mL
same,level at 24 h,[2],320 ng/mL
same,level at 120 h,[2],265 ng/mL
same,level at 4 h,[3],725 ng/mL
same,level at 8 h,[3],454 ng/mL
same,level at 24 h,[3],427 ng/mL
same,level at 120 h,[3],567 ng/mL
same,Cmin,"male rats, 1.80 mg total dose",62.3 ng/mL
same,Cmin,"male rats, 3.60 mg total dose",167 ng/mL
same,maximum tolerated dose for prolonged subcutaneous administration,male rats,above 1300 ng/kg·min
same,Tmax,"male, Sprague Dawley, rat, in vivo, sc, Tmax",81.3 h
same,clinical signs of toxicity,"rat, in vivo",None of the animals in Groups 1-3 showed clinical signs of toxicity
same,plasma concentration up to which no toxicity issues were shown,"rat, in vivo, sc",approx. 740 ng/mL
same,AUCτ of Group 3 females compared to Group 3 males,"rats, 3.60 mg, similar when normalized to weight",up to 2 fold
same,"clinical observations, body weight gain, food consumption","rats, 5-day dosing period","no remarkable clinical observations, effects on body weight gain or effects on food consumption"
same,survival,"rats, Groups 1-3",all animals survived until euthanasia
